Source: ChEMBL document CHEMBL5303764, “Data for DCP probe BI-3812” (2023)

Tests used:
[1] = target: Muscarinic acetylcholine receptor M3 (Homo sapiens, UniProt P20309); assay: M3/H Eurofins SafetyScreen44 (BI); conditions: Compound concentration 10.0 uM
[2] = target: Serine/threonine-protein kinase Chk2 (Homo sapiens) (UniProt O96017); assay: CHEK2 Invitrogen Lab (UK) kinase screen (BI); conditions: Compound concentration 1.0 uM
[3] = target: D(1B) dopamine receptor (Homo sapiens) (UniProt P21918); conditions: Compound concentration 10.0 uM
[4] = target: Dual specificity protein kinase CLK1 (Homo sapiens) (UniProt P49759); assay: CLK1 Invitrogen Lab (UK) kinase screen (BI); conditions: Compound concentration 1.0 uM
[5] = target: 5-hydroxytryptamine receptor 1B (Homo sapiens) (UniProt P28222); conditions: Compound concentration 10.0 uM
[6] = target: Interleukin-1 receptor-associated kinase 4 (Homo sapiens) (UniProt Q9NWZ3); assay: IRAK4 Invitrogen Lab (UK) kinase screen (BI); conditions: Compound concentration 1.0 uM
[7] = target: Sodium-dependent serotonin transporter (Homo sapiens) (UniProt P31645); conditions: Compound concentration 10.0 uM
[8] = target: Mitogen-activated protein kinase 1 (Homo sapiens) (UniProt P28482); assay: MAPK1 Invitrogen Lab (UK) kinase screen (BI); conditions: Compound concentration 1.0 uM
[9] = target: Muscarinic acetylcholine receptor M1 (Homo sapiens) (UniProt P11229); conditions: Compound concentration 10.0 uM
[10] = target: 5-hydroxytryptamine receptor 2B (Homo sapiens) (UniProt P41595); assay: 5HT2B/H AG Eurofins SafetyScreen44 (BI); conditions: filed as agonist, Compound concentration 10.0 uM
[11] = target: Mitogen-activated protein kinase 3 (Homo sapiens) (UniProt P27361); assay: MAPK3 Invitrogen Lab (UK) kinase screen (BI); conditions: Compound concentration 1.0 uM
[12] = target: 5-hydroxytryptamine receptor 1B (Homo sapiens) (UniProt P28222); assay: 5HT1B(H) Eurofins SafetyScreen44 (BI); conditions: filed as antagonist, Compound concentration 10.0 uM
[13] = target: Sodium-dependent serotonin transporter (Homo sapiens) (UniProt P31645); assay: SLC6A4/H Eurofins SafetyScreen44 (BI); conditions: filed as antagonist, Compound concentration 10.0 uM
[14] = target: voltage-gated Na+ channel (site 2) (Rattus norvegicus, UniProt F1LQQ7+O08562+O88420+O88457+P04774+P04775+P08104+P15389+P15390+Q62968); assay: NA+/SITE2/R Eurofins SafetyScreen44 (BI); assay type: protein assay; conditions: rat brain, probe [3H]batrachotoxinin, compound concentration 10 uM, read-out: % Ctrl
[15] = target: SRSF protein kinase 2 (Homo sapiens) (UniProt P78362); assay: SRPK2 Invitrogen Lab (UK) kinase screen (BI); conditions: Compound concentration 1.0 uM
[16] = target: Alpha-1D adrenergic receptor (Homo sapiens) (UniProt P25100); conditions: Compound concentration 10.0 uM
[17] = target: Proto-oncogene tyrosine-protein kinase receptor Ret (Homo sapiens) (UniProt P07949); assay: RET Invitrogen Lab (UK) kinase screen (BI); conditions: Compound concentration 1.0 uM
[18] = target: Alpha-1A adrenergic receptor (Homo sapiens) (UniProt P35348); assay: ALPHA1AH_ANTAG Eurofins SafetyScreen44 (BI); conditions: filed as antagonist, Compound concentration 10.0 uM
[19] = target: Mitogen-activated protein kinase 9 (Homo sapiens) (UniProt P45984); assay: MAPK9 Invitrogen Lab (UK) kinase screen (BI); conditions: Compound concentration 1.0 uM
[20] = target: Kappa-type opioid receptor (Homo sapiens) (UniProt P41145); conditions: Compound concentration 10.0 uM
[21] = target: Glucocorticoid receptor (Homo sapiens) (UniProt P04150); assay: GCORTICOID/H Eurofins SafetyScreen44 (BI); conditions: Compound concentration 10.0 uM
[22] = target: Tyrosine-protein kinase Lck (Homo sapiens) (UniProt P06239); assay: LCK_CE Eurofins SafetyScreen44 (BI); conditions: Compound concentration 10.0 uM
[23] = target: Epidermal growth factor receptor (Homo sapiens) (UniProt P00533); assay: EGFR Invitrogen Lab (UK) kinase screen (BI); conditions: Compound concentration 1.0 uM
[24] = target: High affinity nerve growth factor receptor (Homo sapiens) (UniProt P04629); assay: NTRK1 Invitrogen Lab (UK) kinase screen (BI); conditions: Compound concentration 1.0 uM
[25] = target: Sodium-dependent dopamine transporter (Homo sapiens) (UniProt Q01959); conditions: Compound concentration 10.0 uM
[26] = target: Tyrosine-protein kinase ITK/TSK (Homo sapiens) (UniProt Q08881); assay: ITK Invitrogen Lab (UK) kinase screen (BI); conditions: Compound concentration 1.0 uM
[27] = target: Histamine H2 receptor (Homo sapiens) (UniProt P25021); conditions: Compound concentration 10.0 uM
[28] = target: D(4) dopamine receptor (Homo sapiens) (UniProt P21917); conditions: Compound concentration 10.0 uM
[29] = target: MAP kinase-activated protein kinase 3 (Homo sapiens) (UniProt Q16644); assay: MAPKAPK3 Invitrogen Lab (UK) kinase screen (BI); conditions: Compound concentration 1.0 uM
[30] = target: Tyrosine-protein kinase Lyn (Homo sapiens) (UniProt P07948); assay: LYN A Invitrogen Lab (UK) kinase screen (BI); conditions: Compound concentration 1.0 uM
[31] = target: Alpha-2A adrenergic receptor (Homo sapiens) (UniProt P08913); conditions: Compound concentration 10.0 uM
[32] = target: Muscarinic acetylcholine receptor M2 (Homo sapiens) (UniProt P08172); assay: M2/H Eurofins SafetyScreen44 (BI); conditions: filed as antagonist, Compound concentration 10.0 uM
[33] = target: Ribosomal protein S6 kinase beta-1 (Homo sapiens) (UniProt P23443); assay: RPS6KB1 Invitrogen Lab (UK) kinase screen (BI); conditions: Compound concentration 1.0 uM
[34] = target: Mu-type opioid receptor (Homo sapiens) (UniProt P35372); assay: MU/H Eurofins SafetyScreen44 (BI); conditions: Compound concentration 10.0 uM
[35] = target: 5-hydroxytryptamine receptor 2A (Homo sapiens) (UniProt P28223); conditions: Compound concentration 10.0 uM
[36] = target: 5-hydroxytryptamine receptor 5A (Homo sapiens) (UniProt P47898); conditions: Compound concentration 10.0 uM
[37] = target: Histamine H2 receptor (Homo sapiens) (UniProt P25021); assay: H2/APT/HS Eurofins SafetyScreen44 (BI); conditions: filed as antagonist, Compound concentration 10.0 uM
[38] = target: Ribosomal protein S6 kinase alpha-3 (Homo sapiens) (UniProt P51812); assay: RPS6KA3 Invitrogen Lab (UK) kinase screen (BI); conditions: Compound concentration 1.0 uM
[39] = target: Glycogen synthase kinase-3 beta (Homo sapiens) (UniProt P49841); assay: GSK3B Invitrogen Lab (UK) kinase screen (BI); conditions: Compound concentration 1.0 uM
[40] = target: Mitogen-activated protein kinase kinase kinase 8 (Homo sapiens) (UniProt P41279); assay: MAP3K8 Invitrogen Lab (UK) kinase screen (BI); conditions: Compound concentration 1.0 uM
[41] = target: MAP kinase-activated protein kinase 2 (Homo sapiens) (UniProt P49137); assay: MAPKAPK2 Invitrogen Lab (UK) kinase screen (BI); conditions: Compound concentration 1.0 uM
[42] = target: Muscarinic acetylcholine receptor M5 (Homo sapiens) (UniProt P08912); conditions: Compound concentration 10.0 uM
[43] = target: 5-hydroxytryptamine receptor 2A (Homo sapiens) (UniProt P28223); assay: 5HT2AH_AGON Eurofins SafetyScreen44 (BI); conditions: filed as agonist, Compound concentration 10.0 uM

5-hydroxytryptamine receptor 2A (Homo sapiens), sequence (P28223 whole entry): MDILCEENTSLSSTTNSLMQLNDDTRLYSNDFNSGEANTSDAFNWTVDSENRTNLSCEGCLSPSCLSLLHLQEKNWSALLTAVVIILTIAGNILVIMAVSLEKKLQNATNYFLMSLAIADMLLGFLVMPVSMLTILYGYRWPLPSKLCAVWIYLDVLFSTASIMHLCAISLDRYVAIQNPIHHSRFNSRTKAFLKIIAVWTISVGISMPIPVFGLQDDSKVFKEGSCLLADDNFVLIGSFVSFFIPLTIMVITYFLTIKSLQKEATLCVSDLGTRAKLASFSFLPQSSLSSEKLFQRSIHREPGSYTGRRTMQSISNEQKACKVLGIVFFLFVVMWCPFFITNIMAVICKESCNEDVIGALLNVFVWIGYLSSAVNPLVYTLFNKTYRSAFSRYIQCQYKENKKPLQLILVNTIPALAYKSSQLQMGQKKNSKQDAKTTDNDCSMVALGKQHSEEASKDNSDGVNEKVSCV
5-hydroxytryptamine receptor 1B (Homo sapiens), sequence (P28222 whole entry): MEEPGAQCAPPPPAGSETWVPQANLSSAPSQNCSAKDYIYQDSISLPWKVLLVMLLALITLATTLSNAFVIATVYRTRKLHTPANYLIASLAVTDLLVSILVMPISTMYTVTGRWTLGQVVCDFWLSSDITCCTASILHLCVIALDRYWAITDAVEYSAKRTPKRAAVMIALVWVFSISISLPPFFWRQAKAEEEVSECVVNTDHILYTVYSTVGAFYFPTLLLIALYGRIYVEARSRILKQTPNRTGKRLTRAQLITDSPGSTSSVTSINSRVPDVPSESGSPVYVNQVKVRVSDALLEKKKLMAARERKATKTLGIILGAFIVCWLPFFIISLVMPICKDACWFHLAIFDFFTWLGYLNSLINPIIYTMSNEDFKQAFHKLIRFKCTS
Sodium-dependent serotonin transporter (Homo sapiens), sequence (P31645 whole entry, looked up): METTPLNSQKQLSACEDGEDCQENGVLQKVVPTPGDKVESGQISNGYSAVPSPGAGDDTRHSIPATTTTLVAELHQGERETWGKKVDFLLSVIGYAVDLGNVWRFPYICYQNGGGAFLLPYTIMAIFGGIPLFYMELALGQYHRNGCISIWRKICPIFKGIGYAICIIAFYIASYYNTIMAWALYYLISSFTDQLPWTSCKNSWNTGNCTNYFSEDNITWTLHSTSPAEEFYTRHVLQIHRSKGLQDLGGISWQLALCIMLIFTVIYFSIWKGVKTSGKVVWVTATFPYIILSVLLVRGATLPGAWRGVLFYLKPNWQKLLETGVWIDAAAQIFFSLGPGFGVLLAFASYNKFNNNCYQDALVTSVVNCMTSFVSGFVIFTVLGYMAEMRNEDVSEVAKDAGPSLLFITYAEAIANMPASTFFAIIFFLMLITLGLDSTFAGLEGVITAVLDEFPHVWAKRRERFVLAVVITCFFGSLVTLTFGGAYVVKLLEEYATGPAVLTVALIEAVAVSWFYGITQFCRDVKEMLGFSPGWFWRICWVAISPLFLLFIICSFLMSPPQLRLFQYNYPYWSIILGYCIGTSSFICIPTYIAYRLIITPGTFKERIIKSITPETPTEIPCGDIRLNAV
Histamine H2 receptor (Homo sapiens), sequence (P25021 whole entry): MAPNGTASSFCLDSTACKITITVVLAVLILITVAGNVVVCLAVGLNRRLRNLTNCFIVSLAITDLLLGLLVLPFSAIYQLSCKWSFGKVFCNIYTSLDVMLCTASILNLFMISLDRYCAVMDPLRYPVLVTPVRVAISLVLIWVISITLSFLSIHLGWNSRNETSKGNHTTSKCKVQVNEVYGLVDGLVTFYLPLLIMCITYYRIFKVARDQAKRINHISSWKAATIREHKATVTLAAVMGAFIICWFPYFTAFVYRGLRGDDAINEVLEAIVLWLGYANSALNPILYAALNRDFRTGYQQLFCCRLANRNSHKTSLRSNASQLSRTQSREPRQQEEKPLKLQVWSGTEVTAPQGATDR
5-hydroxytryptamine receptor 5A (Homo sapiens), sequence (P47898 whole entry): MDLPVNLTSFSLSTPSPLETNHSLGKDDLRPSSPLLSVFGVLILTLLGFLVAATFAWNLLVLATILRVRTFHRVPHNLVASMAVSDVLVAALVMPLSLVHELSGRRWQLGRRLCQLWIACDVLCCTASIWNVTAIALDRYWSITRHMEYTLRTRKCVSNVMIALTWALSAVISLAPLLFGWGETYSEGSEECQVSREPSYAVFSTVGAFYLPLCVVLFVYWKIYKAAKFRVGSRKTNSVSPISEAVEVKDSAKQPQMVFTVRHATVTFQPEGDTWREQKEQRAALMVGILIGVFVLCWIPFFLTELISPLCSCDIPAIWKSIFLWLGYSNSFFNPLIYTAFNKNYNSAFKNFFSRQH
Sodium-dependent dopamine transporter (Homo sapiens), sequence (Q01959 whole entry): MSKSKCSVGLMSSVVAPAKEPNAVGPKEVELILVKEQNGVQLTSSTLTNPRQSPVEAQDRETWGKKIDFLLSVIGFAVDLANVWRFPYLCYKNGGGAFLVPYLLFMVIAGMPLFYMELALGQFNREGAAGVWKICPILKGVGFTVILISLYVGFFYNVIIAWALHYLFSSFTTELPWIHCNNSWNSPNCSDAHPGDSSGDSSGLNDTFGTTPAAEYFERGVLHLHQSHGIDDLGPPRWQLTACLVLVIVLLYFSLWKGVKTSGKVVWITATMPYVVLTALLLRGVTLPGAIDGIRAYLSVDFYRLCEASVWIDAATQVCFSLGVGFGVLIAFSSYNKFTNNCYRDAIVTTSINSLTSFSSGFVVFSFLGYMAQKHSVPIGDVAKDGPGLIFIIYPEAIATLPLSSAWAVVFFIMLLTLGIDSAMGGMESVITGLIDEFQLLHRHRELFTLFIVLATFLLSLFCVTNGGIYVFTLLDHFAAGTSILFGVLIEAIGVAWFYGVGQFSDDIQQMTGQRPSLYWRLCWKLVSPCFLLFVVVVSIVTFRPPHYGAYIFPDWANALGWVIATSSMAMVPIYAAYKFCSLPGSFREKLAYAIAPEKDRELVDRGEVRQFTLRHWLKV
D(4) dopamine receptor (Homo sapiens), sequence (P21917 whole entry): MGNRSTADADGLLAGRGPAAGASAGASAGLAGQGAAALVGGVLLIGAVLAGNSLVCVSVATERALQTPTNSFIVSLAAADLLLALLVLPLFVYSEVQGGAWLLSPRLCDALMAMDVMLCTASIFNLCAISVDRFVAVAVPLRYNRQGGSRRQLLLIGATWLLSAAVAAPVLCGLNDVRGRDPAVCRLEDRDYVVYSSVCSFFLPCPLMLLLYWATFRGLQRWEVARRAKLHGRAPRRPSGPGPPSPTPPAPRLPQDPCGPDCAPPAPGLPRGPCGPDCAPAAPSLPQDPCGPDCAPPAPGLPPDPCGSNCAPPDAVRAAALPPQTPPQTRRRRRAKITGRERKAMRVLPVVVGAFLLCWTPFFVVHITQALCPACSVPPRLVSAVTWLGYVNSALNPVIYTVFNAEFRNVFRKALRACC
D(1B) dopamine receptor (Homo sapiens), sequence (P21918 whole entry): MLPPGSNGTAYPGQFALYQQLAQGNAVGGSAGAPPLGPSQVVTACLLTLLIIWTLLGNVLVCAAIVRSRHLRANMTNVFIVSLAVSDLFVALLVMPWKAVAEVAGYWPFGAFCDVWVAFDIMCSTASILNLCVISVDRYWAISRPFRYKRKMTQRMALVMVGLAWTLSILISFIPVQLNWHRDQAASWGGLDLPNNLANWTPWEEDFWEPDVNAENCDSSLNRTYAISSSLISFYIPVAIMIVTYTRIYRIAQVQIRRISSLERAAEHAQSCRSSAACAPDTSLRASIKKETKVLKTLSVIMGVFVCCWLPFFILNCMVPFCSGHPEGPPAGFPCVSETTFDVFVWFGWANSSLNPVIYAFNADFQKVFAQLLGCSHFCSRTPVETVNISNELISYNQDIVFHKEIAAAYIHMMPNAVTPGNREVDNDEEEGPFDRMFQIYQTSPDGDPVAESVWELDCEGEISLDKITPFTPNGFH
Muscarinic acetylcholine receptor M1 (Homo sapiens), sequence (P11229 whole entry): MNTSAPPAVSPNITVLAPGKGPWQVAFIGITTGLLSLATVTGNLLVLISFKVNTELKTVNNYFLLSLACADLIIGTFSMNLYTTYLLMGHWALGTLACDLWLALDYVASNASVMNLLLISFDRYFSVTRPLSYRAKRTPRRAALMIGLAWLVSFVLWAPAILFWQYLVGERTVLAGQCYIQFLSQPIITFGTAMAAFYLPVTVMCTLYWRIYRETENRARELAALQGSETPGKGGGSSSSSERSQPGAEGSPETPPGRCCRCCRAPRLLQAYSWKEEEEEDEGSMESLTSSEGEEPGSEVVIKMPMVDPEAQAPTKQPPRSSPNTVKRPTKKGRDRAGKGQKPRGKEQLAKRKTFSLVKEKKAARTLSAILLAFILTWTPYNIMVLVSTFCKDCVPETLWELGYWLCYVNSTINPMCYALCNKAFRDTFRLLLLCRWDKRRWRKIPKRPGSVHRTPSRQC
Alpha-2A adrenergic receptor (Homo sapiens), sequence (P08913 whole entry): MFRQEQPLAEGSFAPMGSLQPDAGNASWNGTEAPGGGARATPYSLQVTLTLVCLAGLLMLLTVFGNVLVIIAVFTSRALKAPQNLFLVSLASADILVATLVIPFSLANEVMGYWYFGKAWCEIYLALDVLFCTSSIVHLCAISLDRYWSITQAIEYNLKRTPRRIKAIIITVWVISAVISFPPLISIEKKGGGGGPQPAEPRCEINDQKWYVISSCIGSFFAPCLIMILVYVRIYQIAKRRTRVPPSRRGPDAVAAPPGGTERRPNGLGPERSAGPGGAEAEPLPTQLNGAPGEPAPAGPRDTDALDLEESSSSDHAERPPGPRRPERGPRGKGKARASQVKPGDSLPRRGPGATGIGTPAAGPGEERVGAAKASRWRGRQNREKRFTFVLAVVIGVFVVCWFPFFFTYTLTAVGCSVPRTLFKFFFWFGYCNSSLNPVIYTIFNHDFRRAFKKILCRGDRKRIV

`CNC(=O)COc1cc2cc(Nc3nc(N4CCC(C(=O)N(C)C)CC4)ncc3Cl)cc(OC)c2n(C)c1=O` was tested. Which residual activity [1] did it give?
The residual activity was 88%.

What about the residual activity [2] of the same compound?
The residual activity was 93%.

And the inhibition [3]?
Its inhibition is 3.05%.

And the residual activity [4]?
The residual activity was 88%.

And the inhibition [5]?
Its inhibition is 9.19%.

And the residual activity [6]?
The residual activity was 106%.

What about the inhibition [7] of the same compound?
Its inhibition is 14.1%.

And the residual activity [8]?
The residual activity was 98%.

And the inhibition [9]?
The inhibition was 12.9%.

What about the residual activity [10] of the same compound?
Its residual activity is 131%.

What about the residual activity [11] of the same compound?
Its residual activity is 95%.

What about the residual activity [12] of the same compound?
Its residual activity is 124%.

What about the residual activity [13] of the same compound?
The residual activity was 105%.

And the activity at 10 µM [14]?
The activity at 10 µM was 84% (not active).

What about the residual activity [15] of the same compound?
Its residual activity is 103%.

What about the inhibition [16] of the same compound?
The inhibition was 2.72%.

And the residual activity [17]?
The residual activity was 95%.

And the residual activity [18]?
Its residual activity is 99%.

And the residual activity [19]?
The residual activity was 99%.

And the inhibition [20]?
The inhibition was 15.4%.

What about the residual activity [21] of the same compound?
Its residual activity is 102%.

What about the residual activity [22] of the same compound?
The residual activity was 99%.

And the residual activity [23]?
Its residual activity is 100%.

And the residual activity [24]?
Its residual activity is 96%.

What about the inhibition [25] of the same compound?
The inhibition was 12.2%.

And the residual activity [26]?
The residual activity was 83%.

What about the inhibition [27] of the same compound?
The inhibition was 9.74%.

And the inhibition [28]?
Its inhibition is 17.7%.

What about the residual activity [29] of the same compound?
Its residual activity is 99%.

What about the residual activity [30] of the same compound?
Its residual activity is 101%.

What about the inhibition [31] of the same compound?
The inhibition was 15.1%.

And the residual activity [32]?
Its residual activity is 13%.

And the residual activity [33]?
The residual activity was 93%.

What about the residual activity [34] of the same compound?
Its residual activity is 95%.

What about the inhibition [35] of the same compound?
Its inhibition is 7.86%.

And the inhibition [36]?
The inhibition was 12.9%.

What about the residual activity [37] of the same compound?
The residual activity was 104%.

And the residual activity [38]?
The residual activity was 93%.

And the residual activity [39]?
Its residual activity is 97%.

What about the residual activity [40] of the same compound?
Its residual activity is 86%.

What about the residual activity [41] of the same compound?
Its residual activity is 91%.

What about the inhibition [42] of the same compound?
The inhibition was -7.06%.

And the residual activity [43]?
The residual activity was 119%.
